Assay results taken from publication PMC5130005, “Indolin-2-one compounds targeting thioredoxin reductase as potential anticancer drug leads” (Oncotarget, 2016).

test system: HCT 116 cells; assay: MTT cell viability assay, HCT 116 cells; assay type: cell-based; conditions: Homo sapiens, 72 h, mean ± SD of 3 experiments
Description: (§1) HCT 116 and MCF-7 cells were seeded in 96-well plates at a density of 1 × 10^4 cells/well and allowed to grow for 20-24 h before addition of test compounds. DMSO stocks of indolin-2-one compounds were serially diluted in medium each time an assay was performed. Cell viability was determined at the time of compound addition (time 0) and after 72 h of compound treatment by reduction of 3-(4,5-dimethylthiazol-2-yl)-2,5-diphenyltetrazolium bromide (MTT) by dehydrogenases in viable cells. MTT was added into each well (final concentration 400 μg/ml) and the plates were incubated for 4 h at 37°C. The supernatants were aspirated and upon solubilization of the formed formazan crystals in DMSO:glycine buffer pH 10.5 (ratio 4:1), absorbance at 550 nm was measured. 50% growth inhibition concentrations (GI50) and 50% lethal concentrations (LC50) values were calculated.

Row | SMILES | LC50 (50% lethal concentration) [µM]
1 | CCN1C(=O)/C(=C/C(C)=O)c2ccccc21 [Compound 2] | 9.7 ± 0.1
2 | CC(=O)/C=C1/C(=O)N(C(C)C)c2ccccc21 [Compound 3] | 9.8 ± 0.1
3 | Cc1ccccc1C(=O)/C=C1/C(=O)N(C)c2ccccc21 [Compound 7] | 27.8 ± 0.8
4 | Cc1cccc(C(=O)/C=C2/C(=O)N(C)c3ccccc32)c1 [Compound 8] | 28 ± 1
5 | Cc1ccc(C(=O)/C=C2/C(=O)N(C)c3ccccc32)cc1 [Compound 9] | 28.6 ± 0.8
6 | CCc1ccc(C(=O)/C=C2/C(=O)N(C)c3ccccc32)cc1 [Compound 10] | 28.8 ± 1.1
7 | CC(C)c1ccc(C(=O)/C=C2/C(=O)N(C)c3ccccc32)cc1 [Compound 11] | 26.7 ± 1.7
8 | CCCCc1ccc(C(=O)/C=C2/C(=O)N(C)c3ccccc32)cc1 [Compound 12] | 26.7 ± 0.8
9 | CN1C(=O)/C(=C/C(=O)c2ccc(F)cc2)c2ccccc21 [Compound 13] | 29 ± 1.4
10 | CN1C(=O)/C(=C/C(=O)c2cccc(Cl)c2)c2ccccc21 [Compound 14] | 26.9 ± 1.5
11 | CN1C(=O)/C(=C/C(=O)c2ccc(Cl)cc2)c2ccccc21 [Compound 15] | 28.6 ± 1.4
12 | CN1C(=O)/C(=C/C(=O)c2ccccc2C(F)(F)F)c2ccccc21 [Compound 16] | 27.7 ± 3.1
13 | CN1C(=O)/C(=C/C(=O)c2cccc(C(F)(F)F)c2)c2ccccc21 [Compound 17] | 26.2 ± 2.1
14 | CN1C(=O)/C(=C/C(=O)c2ccc(C(F)(F)F)cc2)c2ccccc21 [Compound 18] | 90.5 ± 7.3
15 | CN1C(=O)/C(=C\C(=O)c2ccc(Cl)cc2)c2ccccc21 [Compound 20] | 28.7 ± 2.4

same assay, conditions: Homo sapiens, 72 h, mean ± SD of 3 experiments, read-out: GI50 (50% growth inhibition concentration), HCT 116 cells

Row | SMILES | GI50 [µM]
16 | CCN1C(=O)/C(=C/C(C)=O)c2ccccc21 [Compound 2] | 4.2 ± 0.5
17 | CC(=O)/C=C1/C(=O)N(C(C)C)c2ccccc21 [Compound 3] | 5.3 ± 0.1
18 | Cc1ccccc1C(=O)/C=C1/C(=O)N(C)c2ccccc21 [Compound 7] | 12.4 ± 2.1
19 | Cc1cccc(C(=O)/C=C2/C(=O)N(C)c3ccccc32)c1 [Compound 8] | 10.4 ± 2.6
20 | Cc1ccc(C(=O)/C=C2/C(=O)N(C)c3ccccc32)cc1 [Compound 9] | 10.5 ± 1.2
21 | CCc1ccc(C(=O)/C=C2/C(=O)N(C)c3ccccc32)cc1 [Compound 10] | 11.9 ± 1.1
22 | CC(C)c1ccc(C(=O)/C=C2/C(=O)N(C)c3ccccc32)cc1 [Compound 11] | 14.4 ± 1.8
23 | CCCCc1ccc(C(=O)/C=C2/C(=O)N(C)c3ccccc32)cc1 [Compound 12] | 13.5 ± 2.6
24 | CN1C(=O)/C(=C/C(=O)c2ccc(F)cc2)c2ccccc21 [Compound 13] | 11.9 ± 0.5
25 | CN1C(=O)/C(=C/C(=O)c2cccc(Cl)c2)c2ccccc21 [Compound 14] | 15.6 ± 1.1
26 | CN1C(=O)/C(=C/C(=O)c2ccc(Cl)cc2)c2ccccc21 [Compound 15] | 12.4 ± 2.8
27 | CN1C(=O)/C(=C/C(=O)c2ccccc2C(F)(F)F)c2ccccc21 [Compound 16] | 19.5 ± 1.3
28 | CN1C(=O)/C(=C/C(=O)c2cccc(C(F)(F)F)c2)c2ccccc21 [Compound 17] | 16.1 ± 2.2
29 | CN1C(=O)/C(=C/C(=O)c2ccc(C(F)(F)F)cc2)c2ccccc21 [Compound 18] | 15.7 ± 1.7
30 | CN1C(=O)/C(=C\C(=O)c2ccc(Cl)cc2)c2ccccc21 [Compound 20] | 16.1 ± 2.4

molecular target: T1, recombinant rat TrxR (Rattus norvegicus, UniProt O89049); assay: in vitro TrxR DTNB reduction assay; assay type: biochemical; conditions: 30 min incubation, 100 nM recombinant rat TrxR, 200 μM NADPH, read-out: TrxR inhibition IC50
T1 construct: made in house
T1 sequence (O89049 1-499): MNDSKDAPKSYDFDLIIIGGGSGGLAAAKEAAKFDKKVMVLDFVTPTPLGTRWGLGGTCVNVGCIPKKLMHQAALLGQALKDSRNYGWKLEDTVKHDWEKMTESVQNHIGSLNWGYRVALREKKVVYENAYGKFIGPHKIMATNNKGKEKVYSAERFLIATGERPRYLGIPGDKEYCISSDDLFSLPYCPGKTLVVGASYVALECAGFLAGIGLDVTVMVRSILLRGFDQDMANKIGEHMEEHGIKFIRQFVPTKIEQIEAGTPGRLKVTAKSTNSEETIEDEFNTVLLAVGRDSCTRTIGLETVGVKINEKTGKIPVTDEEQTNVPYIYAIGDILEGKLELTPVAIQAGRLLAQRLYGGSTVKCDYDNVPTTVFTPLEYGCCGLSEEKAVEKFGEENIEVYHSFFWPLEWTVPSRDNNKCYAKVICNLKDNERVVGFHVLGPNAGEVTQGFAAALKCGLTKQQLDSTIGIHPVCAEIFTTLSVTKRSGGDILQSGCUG
Description: In a volume of 100 μl of 50 mM Tris-HCl pH 7.5, 2 mM EDTA buffer (TE buffer), compounds of concentrations 1-100 μM were incubated with 100 nM recombinant rat TrxR and 200 μM NADPH at room temperature in 96-well plates for 30 and 60 min. The incubation was terminated by addition of 100 μl per well of 10 mM DTNB, 200 μM NADPH solution in TE buffer and immediately followed by measurement of linear increase of absorbance at 412 nm for the initial 2 min using the VersaMax microplate reader (Molecular Devices). The results were expressed as % of TrxR activity of drug-treated sample over that of DMSO control. The 50% inhibition concentration (IC50) values were calculated.

Row | SMILES | IC50 [µM]
31 | CCN1C(=O)/C(=C/C(C)=O)c2ccccc21 [Compound 2] | 10.2 ± 1.8
32 | CC(=O)/C=C1/C(=O)N(C(C)C)c2ccccc21 [Compound 3] | 15 ± 1.4
33 | Cc1ccccc1C(=O)/C=C1/C(=O)N(C)c2ccccc21 [Compound 7] | 19 ± 2.4
34 | Cc1cccc(C(=O)/C=C2/C(=O)N(C)c3ccccc32)c1 [Compound 8] | 22.5 ± 0.4
35 | Cc1ccc(C(=O)/C=C2/C(=O)N(C)c3ccccc32)cc1 [Compound 9] | 21.6 ± 4.4
36 | CCc1ccc(C(=O)/C=C2/C(=O)N(C)c3ccccc32)cc1 [Compound 10] | 19.1 ± 0.4
37 | CC(C)c1ccc(C(=O)/C=C2/C(=O)N(C)c3ccccc32)cc1 [Compound 11] | 25.2 ± 5.4
38 | CCCCc1ccc(C(=O)/C=C2/C(=O)N(C)c3ccccc32)cc1 [Compound 12] | > 100
39 | CN1C(=O)/C(=C/C(=O)c2ccc(F)cc2)c2ccccc21 [Compound 13] | 18.7 ± 3.56
40 | CN1C(=O)/C(=C/C(=O)c2cccc(Cl)c2)c2ccccc21 [Compound 14] | 18.4 ± 2.2
41 | CN1C(=O)/C(=C/C(=O)c2ccc(Cl)cc2)c2ccccc21 [Compound 15] | 16.9 ± 3.4
42 | CN1C(=O)/C(=C/C(=O)c2ccccc2C(F)(F)F)c2ccccc21 [Compound 16] | 28.9 ± 0.2
43 | CN1C(=O)/C(=C/C(=O)c2cccc(C(F)(F)F)c2)c2ccccc21 [Compound 17] | 34.2 ± 18.2
44 | CN1C(=O)/C(=C/C(=O)c2ccc(C(F)(F)F)cc2)c2ccccc21 [Compound 18] | > 100
45 | CN1C(=O)/C(=C\C(=O)c2ccc(Cl)cc2)c2ccccc21 [Compound 20] | 15.9 ± 2.9

molecular target: T1, recombinant rat TrxR; assay: NADPH oxidase activity of recombinant rat TrxR (substrate test); assay type: biochemical; conditions: 8 μM juglone, 15 nM TrxR, 250 μM NADPH, 20 min
Description: In a volume of 198 μl of 15 nM recombinant rat TrxR and 250 μM NADPH in TE buffer, 2 μl of diluted DMSO stocks of juglone and compounds 4 and 5 was added to final concentrations of 8 μM (for julgone) and 100 μM (for compounds 4 and 5). The consumption of NADPH was immediately monitored at 340 nm for 20 min using the VersaMax microplate reader. The linear decrease in NADPH absorbance was used for calculating NADPH consumption and expressed as % of activity of drug-treated sample over that of DMSO-treated sample.

Row | SMILES | rate of NADPH consumption of recombinant TrxR
46 | O=C1C=CC(=O)c2c(O)cccc21 [juglone] | markedly increased

test system: MCF-7 cells; assay: MTT cell viability assay, MCF-7 cells; assay type: cell-based; conditions: Homo sapiens, MCF7, 72 h, mean ± SD of 3 experiments, read-out: GI50 (50% growth inhibition concentration), MCF-7 cells
Description: as §1

Row | SMILES | GI50 [µM]
47 | CCN1C(=O)/C(=C/C(C)=O)c2ccccc21 [Compound 2] | 7.9 ± 1.7
48 | CC(=O)/C=C1/C(=O)N(C(C)C)c2ccccc21 [Compound 3] | 7.1 ± 0.6
49 | Cc1ccccc1C(=O)/C=C1/C(=O)N(C)c2ccccc21 [Compound 7] | 17.3 ± 4.6
50 | Cc1cccc(C(=O)/C=C2/C(=O)N(C)c3ccccc32)c1 [Compound 8] | 14 ± 0.6
51 | Cc1ccc(C(=O)/C=C2/C(=O)N(C)c3ccccc32)cc1 [Compound 9] | 10.5 ± 0.8
52 | CCc1ccc(C(=O)/C=C2/C(=O)N(C)c3ccccc32)cc1 [Compound 10] | 10.4 ± 0.6
53 | CC(C)c1ccc(C(=O)/C=C2/C(=O)N(C)c3ccccc32)cc1 [Compound 11] | 10.5 ± 1.7
54 | CCCCc1ccc(C(=O)/C=C2/C(=O)N(C)c3ccccc32)cc1 [Compound 12] | 16.5 ± 4
55 | CN1C(=O)/C(=C/C(=O)c2ccc(F)cc2)c2ccccc21 [Compound 13] | 12.5 ± 2.4
56 | CN1C(=O)/C(=C/C(=O)c2cccc(Cl)c2)c2ccccc21 [Compound 14] | 23 ± 4.5
57 | CN1C(=O)/C(=C/C(=O)c2ccc(Cl)cc2)c2ccccc21 [Compound 15] | 20.9 ± 3
58 | CN1C(=O)/C(=C/C(=O)c2ccccc2C(F)(F)F)c2ccccc21 [Compound 16] | 15.8 ± 1
59 | CN1C(=O)/C(=C/C(=O)c2cccc(C(F)(F)F)c2)c2ccccc21 [Compound 17] | 17.9 ± 0.4
60 | CN1C(=O)/C(=C/C(=O)c2ccc(C(F)(F)F)cc2)c2ccccc21 [Compound 18] | 44.4 ± 0.1
61 | CN1C(=O)/C(=C\C(=O)c2ccc(Cl)cc2)c2ccccc21 [Compound 20] | 20.4 ± 3.5

same assay, conditions: Homo sapiens, MCF7, 72 h, mean ± SD of 3 experiments, read-out: LC50 (50% lethal concentration), MCF-7 cells

Row | SMILES | CC50 [µM]
62 | CCN1C(=O)/C(=C/C(C)=O)c2ccccc21 [Compound 2] | 25 ± 1.6
63 | CC(=O)/C=C1/C(=O)N(C(C)C)c2ccccc21 [Compound 3] | 22.4 ± 0.6
64 | Cc1ccccc1C(=O)/C=C1/C(=O)N(C)c2ccccc21 [Compound 7] | 27.9 ± 1.5
65 | Cc1cccc(C(=O)/C=C2/C(=O)N(C)c3ccccc32)c1 [Compound 8] | 27.9 ± 0.6
66 | Cc1ccc(C(=O)/C=C2/C(=O)N(C)c3ccccc32)cc1 [Compound 9] | 28.4 ± 0.8
67 | CCc1ccc(C(=O)/C=C2/C(=O)N(C)c3ccccc32)cc1 [Compound 10] | 30.4 ± 6.2
68 | CC(C)c1ccc(C(=O)/C=C2/C(=O)N(C)c3ccccc32)cc1 [Compound 11] | 27 ± 0.4
69 | CCCCc1ccc(C(=O)/C=C2/C(=O)N(C)c3ccccc32)cc1 [Compound 12] | 81.2 ± 9.7
70 | CN1C(=O)/C(=C/C(=O)c2ccc(F)cc2)c2ccccc21 [Compound 13] | 28.6 ± 1.2
71 | CN1C(=O)/C(=C/C(=O)c2cccc(Cl)c2)c2ccccc21 [Compound 14] | 84.3 ± 5.8
72 | CN1C(=O)/C(=C/C(=O)c2ccc(Cl)cc2)c2ccccc21 [Compound 15] | 92 ± 1.2
73 | CN1C(=O)/C(=C/C(=O)c2ccccc2C(F)(F)F)c2ccccc21 [Compound 16] | 27.7 ± 1.9
74 | CN1C(=O)/C(=C/C(=O)c2cccc(C(F)(F)F)c2)c2ccccc21 [Compound 17] | 89.6 ± 3.6
75 | CN1C(=O)/C(=C/C(=O)c2ccc(C(F)(F)F)cc2)c2ccccc21 [Compound 18] | 89.8 ± 5.1
76 | CN1C(=O)/C(=C\C(=O)c2ccc(Cl)cc2)c2ccccc21 [Compound 20] | 91.7 ± 2
